From article PMC11708044 (mBio, 2024)
Where two headings read alike, the source gives them in different places. Where a SMILES comes first, the peptide text is derived from it. Bridges are numbered along the chain shown (N, C = ends). Roman numbers before positions name the chains, in order. Where no end group is shown, it is not given here. [ ]: non-standard residue; d: D form. Ahx = NCCCCCC(=O)O

Legend:
IAV strain PR8 [1] = format: cell-based, type A influenza virus (IAV)
IAV strain PR8 [2] = system: IAV strain PR8; design: species or system BALB/c mice; conditions: mouse, in vivo
CaMKII-KD = biological target: T1, CaMKII-KD (Rattus norvegicus, UniProt P11275); test: Kinase assay: phosphorylation of autocamtide-2 by CaMKII-KD; format: biochemical
T1 construct: made in house; host or cells: Sf21 insect cells, baculovirus (pBacPAK8)

IAV strain PR8 [3] = format: cell-based, type A influenza virus (IAV); remark: listed apart in the source
[4] = system: TNFα production in RAW264.7 cells; test: ELISA of TNFα production in LPS-treated RAW264.7 cells; format: cell-based, mouse; conditions: RAW264.7, peptide 30 min then LPS 10 ng/mL 24 h
IL-6, TNFα, IL-1β mRNAs = test: RT-qPCR of proinflammatory cytokine mRNAs in LPS-treated RAW264.7 cells (Fig. S2c); format: cell-based, mouse; conditions: for IL-1β Relative expression AV / IL-6 Relative expression AV / TNFα Relative expression AV: RAW264.7 cells, LPS = 100, mean of n = 3
Method: (§1) a LPS promotes tumor necrosis factor α (TNFα) production in RAW264.7 cells. RAW264.7 cells were treated with the indicated concentration of LPS for 24 h. The amount of TNFα produced in the culture medium was measured by ELISA. Data are presented as a percentage of the control value without peptide (n = 3, mean ± SEM). **P < 0.01; ***P < 0.001 (compared with the control by ANOVA followed by one-sided Dunnett’s test). b The effects of M6 and mM3 on the activation of CaMKII in RAW264.7 cells. RAW264.7 cells were incubated with the indicated concentration of each peptide for 30 min, and then treated with 10 ng/ml LPS for 20 min. The cell lysates were analyzed by western blot using phosphorylated […] specific antibody to detect the activation of CaMKII (upper panel). Data are representative of three independent experiments. […] RAW264.7 cells were incubated with the indicated concentration of each peptide for 30 min, and then treated with10 ng/ml LPS for 3 h. The mRNA level of each proinflammatory cytokine was analyzed by quantitative RT-qPCR. Data are presented as the amount of each mRNA relative to that of LPS treatment only (n = 3, mean ± SEM). **P < 0.01, ***P < 0.001 (compared with the control by ANOVA followed by one-sided Tukey’s test).

[5] = system: CaMKII Thr286 autophosphorylation; test: Western blot of LPS-induced CaMKII activation in RAW264.7 cells (Fig. S2b); format: cell-based, mouse
Method: as §1

CCL5 and CXCL10 mRNAs = format: cell-based, canine
IFNα, IFNβ, Mx1 mRNAs = format: cell-based, canine
NP RNA of IAV strain PR8 = format: cell-based, type A influenza virus (IAV)

T1 sequence (P11275 13-271 limits assumed): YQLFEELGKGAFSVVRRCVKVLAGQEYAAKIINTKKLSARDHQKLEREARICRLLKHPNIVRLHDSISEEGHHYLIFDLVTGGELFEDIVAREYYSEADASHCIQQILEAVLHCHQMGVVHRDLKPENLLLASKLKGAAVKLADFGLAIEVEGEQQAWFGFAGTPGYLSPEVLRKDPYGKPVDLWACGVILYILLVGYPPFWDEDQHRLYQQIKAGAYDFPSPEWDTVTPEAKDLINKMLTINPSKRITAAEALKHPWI

With CO/C1=C\C(C)=C\[C@@H](C)[C@@H](O)[C@@H](C)C/C(C)=C/C=C/[C@H](OC)[C@@H]([C@@H](C)[C@@H](O)[C@H](C)[C@@]2(O)C[C@@H](O)[C@H](C)[C@@H](C(C)C)O2)OC1=O [baf] the “DiO positive vesicles (DiO/R18) Average” value (IAV strain PR8 [1]) was 0.08663.
For COc1ccc(S(=O)(=O)N(CCO)c2ccccc2CN(C)C/C=C/c2ccc(Cl)cc2)cc1 [KN-93], the “protection from mortality” value (IAV strain PR8 [2]) was “provided no protection”.
For CC[C@H](C)[C@H](NC(=O)[C@H](CCCNC(=N)N)NC(=O)[C@H](CCCNC(=N)N)NC(=O)[C@H](C)NC(=O)[C@@H](N)CCSC)C(=O)N[C@@H](CC(C)C)C(=O)N[C@@H](CC(C)C)C(=O)N[C@@H](CC(C)C)C(=O)N[C@@H](CC(C)C)C(=O)N[C@@H](CC(C)C)C(=O)N[C@@H](C)C(=O)N[C@@H](CCCNC(=N)N)C(=O)N[C@@H](Cc1c[nH]cn1)C(=O)N[C@@H](Cc1c[nH]cn1)C(=O)N[C@@H](C)C(=O)N[C@@H](CCCCN)C(=O)N[C@@H](CCCCN)C(=O)N[C@@H](CCCCN)C(=O)NCCCCCC(=O)O [M2] (H-MARRILLLLLARHHAKKK[Ahx]-OH), the IC50 (CaMKII-KD; read-out: IC50) was 34 µM.
CC[C@H](C)[C@H](NC(=O)[C@H](CCCNC(=N)N)NC(=O)[C@H](C)NC(=O)[C@@H](N)CCSC)C(=O)N[C@H](C(=O)N[C@@H](CC(C)C)C(=O)N[C@@H](CC(C)C)C(=O)N[C@@H](CC(C)C)C(=O)N[C@@H](CC(C)C)C(=O)N[C@@H](CC(C)C)C(=O)N[C@@H](C)C(=O)N[C@@H](CCCNC(=N)N)C(=O)N[C@@H](CC(C)C)C(=O)N[C@@H](Cc1c[nH]cn1)C(=O)N[C@@H](C)C(=O)N[C@@H](CCCCN)C(=O)N[C@@H](CCCCN)C(=O)N[C@@H](CCCCN)C(=O)NCCCCCC(=O)O)[C@@H](C)CC [M5] (H-MARIILLLLLARLHAKKK[Ahx]-OH) gave an IC50 (CaMKII-KD; read-out: IC50) of 11.1 µM.
“I: MARRRLLLLLARHHAKKK[Ahx]KK-NH2 / II: MARRRLLLLLARHHAKKK[Ahx]K / III: MARRRLLLLLARHHAKKK[Ahx] / IV: MARRRLLLLLARHHAKKK[Ahx] (amide I:20-IV:C, I:21-II:C, II:20-III:C) [T1]” was tested, and the IC50 (CaMKII-KD) was 2.4 µM.
Compound “I: MARRILLLLLARHHAKKK[Ahx]KK-NH2 / II: MARRILLLLLARHHAKKK[Ahx]K / III: MARRILLLLLARHHAKKK[Ahx] / IV: MARRILLLLLARHHAKKK[Ahx] (amide I:20-IV:C, I:21-II:C, II:20-III:C) [T2]” has an IC50 (CaMKII-KD) of 14.1 µM.
Work on “I: MARRILLLLLARLHAKKK[Ahx]KK-NH2 / II: MARRILLLLLARLHAKKK[Ahx]K / III: MARRILLLLLARLHAKKK[Ahx] / IV: MARRILLLLLARLHAKKK[Ahx] (amide I:20-IV:C, I:21-II:C, II:20-III:C) [T3]” yielded an IC50 (CaMKII-KD) of 8.6 µM.
Cc1nn(CC(F)(F)F)cc1Nc1ncc(Br)c(NCc2ccc(S(N)(=O)=O)cc2)n1 [GSK8612] was tested, and the “IAV-induced cytopathicity of MDCK cells, time of addition” value (IAV strain PR8 [3]) was “best when GSK8612 was added up to 3 h after infection”.
CSCC[C@H](N)C(=O)N[C@@H](C)C(=O)N[C@@H](CCCNC(=N)N)C(=O)N[C@@H](CCCNC(=N)N)C(=O)N[C@@H](CCCNC(=N)N)C(=O)N[C@@H](CC(C)C)C(=O)N[C@@H](CC(C)C)C(=O)N[C@@H](CC(C)C)C(=O)N[C@@H](CC(C)C)C(=O)N[C@@H](CC(C)C)C(=O)N[C@@H](C)C(=O)N[C@@H](CCCNC(=N)N)C(=O)N[C@@H](Cc1c[nH]cn1)C(=O)N[C@@H](Cc1c[nH]cn1)C(=O)N[C@@H](C)C(=O)N[C@@H](CCCCN)C(=O)N[C@@H](CCCCN)C(=O)N[C@@H](CCCCN)C(=O)NCCCCCC(=O)O [M1] (H-MARRRLLLLLARHHAKKK[Ahx]-OH) was tested, and the IC50 (CaMKII-KD; read-out: IC50) was 29.4 µM.
With “myr-Met-Ala-[no. 3 or 6 motif]-Ala [mM3, N-terminal myristoylated-M3 (myr-Met-Ala-[no. 3 motif]-Ala)]” the “inhibition of TNFα production” value [4] was “inhibited TNFα production similarly to M6”, the “inhibitory effect on IAV cytopathicity, single cycle of infection” value (IAV strain PR8 [3]) was “greatest inhibitory effect on IAV cytopathicity at concentrations up to 3 µM” and the “transcription of IL-6, TNFα and IL-1β” value (IL-6, TNFα, IL-1β mRNAs; RAW264.7, peptide 30 min then 10 ng/ml LPS 3 h, RT-qPCR) was “efficiently inhibited”. The “IL-1β Relative expression AV” value (IL-6, TNFα, IL-1β mRNAs; peptide only (no LPS)) was 0.006044, the “IL-6 Relative expression AV” value (IL-6, TNFα, IL-1β mRNAs; peptide only (no LPS)) was 0.006603 and the “TNFα Relative expression AV” value (IL-6, TNFα, IL-1β mRNAs; peptide only (no LPS)) was 2.34. For the same compound, the “IL-1β Relative expression AV” value (IL-6, TNFα, IL-1β mRNAs; peptide+LPS) was 16.8504, the “IL-6 Relative expression AV” value (IL-6, TNFα, IL-1β mRNAs; peptide+LPS) was 27.8458 and the “TNFα Relative expression AV” value (IL-6, TNFα, IL-1β mRNAs; peptide+LPS) was 57.9321. For the same compound, the “LPS-induced Thr286 autophosphorylation of CaMKII” value ([5]; RAW264.7, peptide 30 min then 10 ng/ml LPS 20 min, western blot) was “efficiently inhibited” and the “Phosphorylation of CaMKII (ratio) AV” value ([5]; peptide 10µM, RAW264.7 cells, (-) = 1, mean of n = 3) was 0.8346.
In the case of CC[C@H](C)[C@H](NC(=O)[C@H](CCCNC(=N)N)NC(=O)[C@H](CCCNC(=N)N)NC(=O)[C@H](C)NC(=O)[C@@H](N)CCSC)C(=O)N[C@@H](CC(C)C)C(=O)N[C@@H](CC(C)C)C(=O)N[C@@H](CC(C)C)C(=O)N[C@@H](CC(C)C)C(=O)N[C@@H](CC(C)C)C(=O)N[C@@H](C)C(=O)N[C@@H](CCCNC(=N)N)C(=O)N[C@@H](CC(C)C)C(=O)N[C@@H](Cc1c[nH]cn1)C(=O)N[C@@H](C)C(=O)N[C@@H](CCCCN)C(=O)N[C@@H](CCCCN)C(=O)N[C@@H](CCCCN)C(=O)NCCCCCC(=O)O [M3] (H-MARRILLLLLARLHAKKK[Ahx]-OH), the IC50 (CaMKII-KD; read-out: IC50) is reported as 19.4 µM.
With O=C1c2c(O)c(=O)ccn2N([C@@H]2c3ccccc3SCc3c2ccc(F)c3F)[C@@H]2COCCN12 [BXA, Baloxavir acid] the “infection-induced cytopathicity” value (IAV strain PR8 [3]) was “efficiently inhibited”, the “expression of CXCL10 and CCL5 mRNAs” value (CCL5 and CXCL10 mRNAs) was “also increased their expression” and the “expression of IFNα and β mRNAs early in infection” value (IFNα, IFNβ, Mx1 mRNAs) was “rather increased the expression of both mRNAs”. For the same compound, the “expression of IFNα and β mRNAs later in infection” value (IFNα, IFNβ, Mx1 mRNAs) was “greatly reduced” and the “infection-induced expression of NP mRNA” value (NP RNA of IAV strain PR8) was “efficiently inhibited”.
CO/C1=C\C(C)=C\[C@@H](C)[C@@H](O)[C@@H](C)C/C(C)=C/C=C/[C@H](OC)[C@@H]([C@@H](C)[C@@H](O)[C@H](C)[C@@]2(O)C[C@@H](O)[C@H](C)[C@@H](C(C)C)O2)OC1=O [bafilomycin A1, reference compound] was tested, and the “fusion process / virus entry into cells” value (IAV strain PR8 [1]) was “efficiently inhibited virus entry into cells”.
In the case of CC[C@H](C)[C@H](NC(=O)[C@H](CCCNC(=N)N)NC(=O)[C@H](CCCNC(=N)N)NC(=O)[C@H](C)NC(=O)[C@@H](N)CCSC)C(=O)N[C@@H](CC(C)C)C(=O)N[C@@H](CC(C)C)C(=O)N[C@@H](CC(C)C)C(=O)N[C@@H](CC(C)C)C(=O)N[C@@H](CC(C)C)C(=O)N[C@@H](C)C(=O)N[C@@H](CC(C)C)C(=O)N[C@@H](CC(C)C)C(=O)N[C@@H](Cc1c[nH]cn1)C(=O)N[C@@H](C)C(=O)N[C@@H](CCCCN)C(=O)N[C@@H](CCCCN)C(=O)N[C@@H](CCCCN)C(=O)NCCCCCC(=O)O [M6] (H-MARRILLLLLALLHAKKK[Ahx]-OH), the IC50 (CaMKII-KD; read-out: IC50) is reported as 12.3 µM.
For “I: MARRILLLLLALLHAKKK[Ahx]KK-NH2 / II: MARRILLLLLALLHAKKK[Ahx]K / III: MARRILLLLLALLHAKKK[Ahx] / IV: MARRILLLLLALLHAKKK[Ahx] (amide I:20-IV:C, I:21-II:C, II:20-III:C) [T6]”, the IC50 (CaMKII-KD) was 32.2 µM.
